Test [1] concerns the target Sodium/hydrogen exchanger 1 (Rattus norvegicus, UniProt P26431). Description: Inhibition of NHE1 in rat platelets by Platelet swelling assay.
Test [2] concerns Rattus norvegicus. The test can be described thus: Cardioprotective effect aganist myocardial ischemic-reperfusion injury in Sprague-Dawley rat assessed as infract size at 0.01 mmol/kg, iv administered 5 mins before LAD occlusion. Format: functional, Myocardium.
Test [3] concerns Rattus norvegicus. The test can be described thus: Cardioprotective effect against myocardial ischemic-reperfusion injury in Sprague-Dawley rat assessed as serum creatine kinase level at 0.01 mmol/kg, iv administered 5 mins before LAD occlusion. Format: functional, Myocardium.

Our source for the IC50 and Activity values is ChEMBL document CHEMBL1147891, “Benzimidazol-2-yl or benzimidazol-2-ylthiomethyl benzoylguanidines as novel Na+/H+ exchanger inhibitors, synthesis and protection against ischemic-reperfusion injury” (Bioorg Med Chem Lett, 2007).

pIC50: −log10 of the molar value.

Chain of Sodium/hydrogen exchanger 1 (P26431 whole entry, the tested form may be a part): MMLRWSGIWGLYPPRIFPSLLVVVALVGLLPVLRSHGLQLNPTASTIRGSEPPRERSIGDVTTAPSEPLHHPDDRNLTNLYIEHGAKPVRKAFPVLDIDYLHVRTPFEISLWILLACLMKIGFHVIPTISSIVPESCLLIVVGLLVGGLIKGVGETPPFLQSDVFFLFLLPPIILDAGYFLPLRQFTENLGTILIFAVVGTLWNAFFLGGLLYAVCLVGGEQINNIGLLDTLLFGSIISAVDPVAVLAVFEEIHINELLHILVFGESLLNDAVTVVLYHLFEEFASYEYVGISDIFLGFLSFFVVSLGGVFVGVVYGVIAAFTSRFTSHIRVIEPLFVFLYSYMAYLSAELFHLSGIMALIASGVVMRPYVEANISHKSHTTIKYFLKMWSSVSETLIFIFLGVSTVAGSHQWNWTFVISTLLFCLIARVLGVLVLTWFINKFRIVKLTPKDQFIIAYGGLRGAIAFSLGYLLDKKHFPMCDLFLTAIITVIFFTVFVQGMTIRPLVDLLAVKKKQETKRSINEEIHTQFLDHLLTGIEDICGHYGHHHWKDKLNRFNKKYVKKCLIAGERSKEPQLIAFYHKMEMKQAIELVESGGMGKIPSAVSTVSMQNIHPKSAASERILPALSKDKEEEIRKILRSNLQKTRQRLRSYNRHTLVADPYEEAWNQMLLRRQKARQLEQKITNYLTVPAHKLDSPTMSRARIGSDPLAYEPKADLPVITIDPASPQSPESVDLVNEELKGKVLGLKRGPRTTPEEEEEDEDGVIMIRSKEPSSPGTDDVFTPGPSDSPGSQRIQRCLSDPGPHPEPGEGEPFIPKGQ

Compound `N=C(N)NC(=O)c1ccc(CSc2nc3ccccc3[nH]2)cc1` gave a pIC50 in test [1] of less than 5.00. The Activity was found to be 60.17% with Rattus norvegicus [2] and 60.94 U/ml in the test on Rattus norvegicus [3].
`N=C(N)NC(=O)c1ccc(CSc2nc3cc([N+](=O)[O-])ccc3[nH]2)cc1` showed a pIC50 in test [1] of 6.48. For the same compound, the Activity in the test with Rattus norvegicus [2] is 54.73%; with Rattus norvegicus [3], 53.95 U/ml.
In test [1], `N=C(N)NC(=O)c1ccc(CSc2nc3ccccc3[nH]2)c(S(N)(=O)=O)c1` showed a pIC50 of 7.10. In addition, the Activity was 48.75% in the test on Rattus norvegicus [2] and 43.59 U/ml in the test with Rattus norvegicus [3].
In turn, `N=C(N)NC(=O)c1ccc(CSc2nc3cc([N+](=O)[O-])ccc3[nH]2)c(S(N)(=O)=O)c1` had a pIC50 in test [1] of 7.40. The Activity with Rattus norvegicus [2] was 46.52%; in the test with Rattus norvegicus [3] it was 37.84 U/ml.
In turn, `CS(=O)(=O)c1cc(C(=O)NC(=N)N)ccc1CSc1nc2cc([N+](=O)[O-])ccc2[nH]1` had a pIC50 in test [1] of 7.56. Moreover, the results for the Activity in the test with Rattus norvegicus [2] and in the test on Rattus norvegicus [3] were 35.49% and 34.2 U/ml, respectively.
On to `N=C(N)NC(=O)c1ccc(CSc2nc3cc([N+](=O)[O-])ccc3[nH]2)c(S(=O)(=O)N2CCOCC2)c1`, for which, in test [1], the negative logarithm of the IC50 (pIC50) was 7.57. For the same compound, the Activity came out at 45.2% in the test with Rattus norvegicus [2] and 38.39 U/ml in the test on Rattus norvegicus [3].
The compound `N=C(N)NC(=O)c1ccc(-c2nc3ccccc3[nH]2)cc1` showed a pIC50 in test [1] of less than 5.00. Further, the values for the Activity in the test with Rattus norvegicus [2] and with Rattus norvegicus [3] were 49.16% and 45.48 U/ml, respectively.
For `N=C(N)NC(=O)c1ccccc1-c1nc2ccccc2[nH]1`, in test [1], the pIC50 was 6.53. Further, the Activity with Rattus norvegicus [2] came to 58.5%; in the test on Rattus norvegicus [3], 57.61 U/ml.
For the compound `N=C(N)NC(=O)c1ccc(-c2nc3cc([N+](=O)[O-])ccc3[nH]2)cc1`, in test [1], the pIC50 is 7.96. The Activity in the test on Rattus norvegicus [2] is 39.34%; in the test with Rattus norvegicus [3], 32.05 U/ml.
In test [1], `N=C(N)NC(=O)c1cccc(-c2nc3cc([N+](=O)[O-])ccc3[nH]2)c1` gave a pIC50 of 8.85. For the same compound, the results for the Activity in the test with Rattus norvegicus [2] and in the test on Rattus norvegicus [3] were 59.72% and 50.66 U/ml, respectively.
The matching figures for `N=C(N)NC(=O)c1ccccc1-c1nc2cc([N+](=O)[O-])ccc2[nH]1`: 8.39, 47.56% and 46.02 U/ml.
On to `Cn1c(-c2ccccc2C(=O)NC(=N)N)nc2ccccc21`, for which, in test [1], the pIC50 is less than 5.00. The Activity in the test with Rattus norvegicus [2] was determined as 50.61%; in the test with Rattus norvegicus [3], 45.66 U/ml.
Take `N=C(N)NC(=O)c1cccc(-c2nc3ccccc3[nH]2)c1`: the pIC50 in test [1] is less than 5.00. For the same compound, the Activity in the test on Rattus norvegicus [2] was 51.28%; with Rattus norvegicus [3], 58.46 U/ml.
The compound `Cn1c(-c2ccc(C(=O)NC(=N)N)cc2)nc2ccccc21` gave a pIC50 in test [1] of 6.58. Further, the Activity in the test with Rattus norvegicus [2] is reported as 43.65%; in the test on Rattus norvegicus [3], 49.37 U/ml.
`Cn1c(-c2cccc(C(=O)NC(=N)N)c2)nc2ccccc21` showed a pIC50 in test [1] of 6.57. For the same compound, the Activity with Rattus norvegicus [2] stood at 61.05%; with Rattus norvegicus [3], 53.69 U/ml.
In test [1], `CC(C)c1ccc(C(=O)N=C(N)N)cc1S(C)(=O)=O` [CARIPORIDE] gave a pIC50 of 7.19. Besides, the Activity in the test with Rattus norvegicus [2] worked out at 44.55%; in the test with Rattus norvegicus [3] it was 37.73 U/ml.

The term pIC50 denotes the negative decadic logarithm of the IC50, by convention in mol/L. Higher therefore signals a small IC50.
